Reference: patent publication US11065257B2, “Substituted pyrazoloazepin-4-ones and their use as phosphodiesterase inhibitors” (LEO Pharma A/S, priority 2016, dated 2021)

Target: T1, human PDE4D catalytic domain (Homo sapiens, UniProt Q08499)
T1 construct: UniProt no; Q08499 [S380-L740]
Test: PDE4 Assay
Format: biochemical
Settings: human PDE4D catalytic domain (S380-L740), TR-FRET with FAM-cAMP; expressed as a range of IC50; read-out: PDE4 Potency Range
Protocol: The human PDE4D catalytic domain (UniProt no. Q08499 [S380-L740]) was incubated with a mixture of non-labelled cAMP (cyclic adenosine monophosphate) and fluorescein amidite (FAM) conjugated cAMP and titrated test or reference compound. Following brief incubation the enzymatic reaction was stopped by addition of binding buffer containing nanoparticles with immobilized trivalent metal ions capable of binding 1) AMP phospho groups and 2) terbium (Tb) donor fluorophores. Subsequent excitation of the Tb donor triggers time-resolved FRET to adjacent FAM acceptor molecules resulting in light emission. In the presence of a PDE4 inhibitor, AMP generation was reduced resulting in a lower fluorescence signal. The cAMP phosphodiester is not bound by the detection system.
The results were calculated as the molar concentrations resulting in 50% inhibition of the substrate cleavage compared to controls samples, and are expressed as a range of IC50 (nM).

T1 sequence (Q08499 380-740): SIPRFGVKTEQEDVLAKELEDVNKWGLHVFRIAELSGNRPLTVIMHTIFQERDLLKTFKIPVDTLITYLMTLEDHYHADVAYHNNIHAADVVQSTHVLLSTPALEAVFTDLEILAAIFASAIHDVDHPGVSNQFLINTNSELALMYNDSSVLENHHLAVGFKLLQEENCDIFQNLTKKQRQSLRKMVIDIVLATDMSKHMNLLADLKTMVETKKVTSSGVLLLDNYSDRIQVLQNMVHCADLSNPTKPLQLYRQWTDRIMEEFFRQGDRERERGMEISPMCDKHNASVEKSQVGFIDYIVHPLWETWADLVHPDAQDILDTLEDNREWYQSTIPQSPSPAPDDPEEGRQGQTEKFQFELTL

Row | SMILES | IC50 [nM]
1 | CCc1nn(CCOC(=O)c2cc(C)on2)c2c1C(=O)NCC1(CCOCC1)C2 [Example 4, 2-(3-ethyl-4-oxo-spiro[6,8-dihydro-5H-pyrazolo[4,3-c]azepine-7,4′-tetrahydropyran]-1-yl)ethyl 5-methylisoxazole-3-carboxylate] | 100 to 500
2 | CCc1nn(CCCOC(=O)c2nonc2C)c2c1C(=O)NCC1(CCOCC1)C2 [Example 51, 3-(3-ethyl-4-oxo-spiro[6,8-dihydro-5H-pyrazolo[4,3-c]azepine-7,4′-tetrahydropyran]-1-yl)propyl 4-methyl-1,2,5-oxadiazole-3-carboxylate] | 100 to 500
3 | CCc1nn(CCCOC(=O)c2noc(C)c2C)c2c1C(=O)NCC1(CCOCC1)C2 [Example 74, 3-(3-ethyl-4-oxo-spiro[6,8-dihydro-5H-pyrazolo[4,3-c]azepine-7,4′-tetrahydropyran]-1-yl)propyl 4,5-dimethylisoxazole-3-carboxylate] | 100 to 500
4 | CCc1nn(CCCOC(=O)c2cc(C)ccn2)c2c1C(=O)NCC1(CCOCC1)C2 [Example 63, 3-(3-ethyl-4-oxo-spiro[6,8-dihydro-5H-pyrazolo[4,3-c]azepine-7,4′-tetrahydropyran]-1-yl)propyl 4-methylpyridine-2-carboxylate] | > 500
5 | CCc1nn(CCOC(=O)C2CCN(C(C)=O)CC2)c2c1C(=O)NCC1(CCOCC1)C2 [Example 16, 2-(3-ethyl-4-oxo-spiro[6,8-dihydro-5H-pyrazolo[4,3-c]azepine-7,4′-tetrahydropyran]-1-yl)ethyl 1-acetylpiperidine-4-carboxylate] | > 500
6 | CCc1nn(CCCOC(=O)c2ccnnc2C)c2c1C(=O)NCC1(CCOCC1)C2 [Example 67, 3-(3-ethyl-4-oxo-spiro[6,8-dihydro-5H-pyrazolo[4,3-c]azepine-7,4′-tetrahydropyran]-1-yl)propyl 3-methylpyridazine-4-carboxylate] | > 500
7 | CCc1nn(CCCOC(=O)c2ncccn2)c2c1C(=O)NCC1(CCOCC1)C2 [Example 31, 3-(3-ethyl-4-oxo-spiro[6,8-dihydro-5H-pyrazolo[4,3-c]azepine-7,4′-tetrahydropyran]-1-yl)propyl pyrimidine-2-carboxylate] | > 500
8 | CCc1nn(CCCOC(=O)C2CCCN(C(=O)OC)C2)c2c1C(=O)NCC1(CCOCC1)C2 (stereo not shown) [Example 104, O3-[3-(3-ethyl-4-oxo-spiro[6,8-dihydro-5H-pyrazolo[4,3-c]azepine-7,4′-tetrahydropyran]-1-yl)propyl] O1-methyl piperidine-1,3-dicarboxylate] | 100 to 500
9 | CCc1nn(CCCOC(=O)c2c[nH]cn2)c2c1C(=O)NCC1(CCOCC1)C2 [Example 17, 3-(3-ethyl-4-oxo-spiro[6,8-dihydro-5H-pyrazolo[4,3-c]azepine-7,4′-tetrahydropyran]-1-yl)propyl 1H-imidazole-4-carboxylate] | > 500
10 | CCc1nn(CCCOC(=O)c2cc(C)on2)c2c1C(=O)NCC1(CCOCC1)C2 [Example 44, 3-(3-ethyl-4-oxo-spiro[6,8-dihydro-5H-pyrazolo[4,3-c]azepine-7,4′-tetrahydropyran]-1-yl)propyl 5-methylisoxazole-3-carboxylate] | 100 to 500
11 | CCc1nn(CCCOC(=O)C2CCOCC2)c2c1C(=O)NCC1(CCOCC1)C2 [Example 59, 3-(3-ethyl-4-oxo-spiro[6,8-dihydro-5H-pyrazolo[4,3-c]azepine-7,4′-tetrahydropyran]-1-yl)propyl tetrahydropyran-4-carboxylate] | > 500
12 | CCc1nn(CCCOC(=O)c2cc(C)nnc2C)c2c1C(=O)NCC1(CCOCC1)C2 [Example 88, 3-(3-ethyl-4-oxo-spiro[6,8-dihydro-5H-pyrazolo[4,3-c]azepine-7,4′-tetrahydropyran]-1-yl)propyl 3,6-dimethylpyridazine-4-carboxylate] | > 500
13 | CCc1nn(CCCOC(=O)c2cc(C)n(C)n2)c2c1C(=O)NCC1(CCOCC1)C2 [Example 72, 3-(3-ethyl-4-oxo-spiro[6,8-dihydro-5H-pyrazolo[4,3-c]azepine-7,4′-tetrahydropyran]-1-yl)propyl 1,5-dimethylpyrazole-3-carboxylate] | > 500
